Assay results: US7625894B2, “Pyrrolo[2,3-d]Pyrimidines as Protein Tyrosine Kinase Inhibitors” (Novartis AG, priority 2004, dated 2009)

How the values were obtained:
VEGF receptor (KDR) = target: T1, VEGF receptor (KDR) (Homo sapiens, UniProt P35968); assay: Inhibition of VEGF-induced KDR-receptor autophosphorylation in transfected CHO cells; type: cell-based
T1 construct: expressed in transfected cells
Procedure: The inhibition of VEGF-induced KDR-receptor autophosphorylation can be confirmed with a further in vitro experiment in cells: transfected CHO cells, which permanently express human VEGF receptor (KDR), are seeded in complete culture medium with 10% fetal calf serum (FCS) in 6-well cell-culture plates and incubated at 37° C. under 5% CO2 until they show about 80% confluency. The compounds to be tested are then diluted in culture medium (without FCS, with 0.1% bovine serum albumin) and added to the cells. (Controls comprise medium without test compounds). After two hours of incubation at 37° C., recombinant VEGF is added; the final VEGF concentration is 20 ng/mL). After a further five minute incubation at 37° C., the cells are washed twice with ice-cold PBS (phosphate-buffered saline) and immediately lysed in 100 μL lysis buffer per well. The lysates are then centrifuged to remove the cell nuclei, and the protein concentrations of the supernatants are determined using a commercial protein assay (BIORAD). The lysates can then either be immediately used or, if necessary, stored at −20° C.
A sandwich ELISA is carried out to measure the KDR-receptor phosphorylation: a monoclonal antibody to KDR (for example Mab 1495.12.14) is immobilized on black ELISA plates (OptiPlate™ HTRF-96 from Packard). The plates are then washed and the remaining free protein-binding sites are saturated with 1% BSA in PBS. The cell lysates (20 μg protein per well) are then incubated in these plates overnight at 4° C. together with an anti-phosphotyrosine antibody coupled with alkaline phosphatase (PY20: AP from Transduction Laboratories). […] The luminescence is measured in a Packard Top Count Microplate Scintillation Counter (Top Count). The difference between the signal of the positive control (stimulated with VEGF) and that of the negative control (not stimulated with VEGF) corresponds to VEGF-induced KDR-receptor phosphorylation (=100%). The activity of the tested substances is calculated as % inhibition of VEGF-induced KDR-receptor phosphorylation, wherein the concentration of substance that induces half the maximum inhibition is defined as the IC50 (effective dose for 50% inhibition).

c-Raf-1 = target: T2, c-Raf-1 (Homo sapiens, UniProt P04049); assay: c-Raf-1 protein kinase assay; type: biochemical; set-up: dose or concentration left out as unconfirmed
T2 construct: made in house; host or cells: Sf21 insect cells, triple baculovirus infection (GST-c-Raf-1, v-Ras, v-Src)
Procedure: c-Raf-1 protein kinase assay: Recombinant c-Raf-1 protein is obtained by triple infection of Sf21 cells with GST-c-Raf-1 recombinant baculovirus together with v-Src and v-Ras recombinant baculoviruses that are required for active c-Raf-1 kinase production (Williams et al., PNAS 1992; 89:2922-6). Active Ras (v-Ras) is required to recruit c-Raf-1 to the cell membrane and v-Src to phosphorylate c-Raf-1 to fully activate it. Cells are seeded at 2.5×10^7 cells per 150 mm dish and allowed to attach to a 150 mm dish for 1 hr at RT. Media (SF900II containing 10% FBS) is aspirated and recombinant baculovirus GST-c-Raf-1, v-Ras and v-Src are added at MOI of 3.0, 2.5 and 2.5, respectively, in a total volume of 4-5 mL. Cells are incubated for 1 hr at RT and then 15 mL of medium is added. Infected cells are incubated for 48-72 hr at 27° C. Infected Sf21 cells are scraped and collected into a 50 mL tube and centrifuged for 10 min at 4° C. at 1100 g in a Sorvall centrifuge. The cell pellet is washed once with ice cold PBS and lysed with 0.6 mL lysis buffer per 2.5×10^7 cells. Complete lysis of cells is achieved after 10 min on ice with occasional pipetting. The cell lysates are centrifuged for 10 min at 4° C. at 14,500 g in a Sorvall centrifuge with SS-34 rotor and the supernatant is transferred to a fresh tube and stored at −80° C. c-Raf-1 is purified from cell lysates using 100 μL of packed glutathione-sepharose 4B beads equilibrated in ice cold PBS per 2.5×10^7 cells. GST-c-Raf-1 is allowed to bind to the beads at 4° C. for 1 hr with rocking. Bound GST-c-Raf-1 with beads is transferred to a column. The column is washed once with lysis buffer and twice with ice cold Tris buffered saline. Ice cold elution buffer is added and column flow is stopped to allow the free glutathione to disrupt the interaction of GST-c-Raf-1 with glutathione sepharose beads. Fractions (1 mL) are collected into pre-chilled tubes. Each tube contains 10% glycerol (final concentration) to maintain kinase activity during freeze thaw cycles. Purified fractions of GST-c-Raf-1 kinase protein are stored at −80° C.
IκB is used as substrate for the c-Raf-1 kinase. IκB is expressed in bacteria as a His-tagged protein BL21. LysS bacteria containing the IκB plasmid are grown to an OD600 of 0.6 in LB medium, then induced to express the IκB with IPTG (final concentration of 1 mM) for 3 hrs at 37° C. and then bacteria are lysed by sonication (microtip limit setting for 3 times at 1 min each in sonication buffer [50 mM Tris pH 8.0, 1 mM DTT, 1 mM EDTA] and centrifuged at 10,000 g for 15 min. The supernatant is mixed with ammonium sulfate to give a final concentration of 30%. This mixture is rocked for 15 min at 4 C then spun at 10,000 g for 15 min. The pellet is resuspended in binding buffer (Novagen) containing 10 mM BSA. This solution is applied to Ni-agarose (Novagen) and washed according to the Novagen manual. IκB is eluted from the column using elution buffer (0.4 M imidazole, 0.2 M NaCl, 8 mM Tris pH 7.9). Fractions containing protein are dialysed in 50 mM Tris pH 8, 1 mM DTT. The activity of c-Raf-1 protein kinase is assayed in the presence or absence of inhibitors, by measuring the incorporation of ^33P from [γ^33P] ATP into IκB. The assay is carried out in 96-well plates at ambient temperature for 60 min. It contains (total volume of 30 μL): c-Raf-1 kinase (400 ng), 25 mM Tris.HCl, pH 7.5, 5 mM MgCl2, 5 mM MnCl2, 10 μM Na3VO4, 1 mM DTT and 0.3 μCi/assay [γ^33P]-ATP (10 μM ATP) using 600 ng IκB in the presence of 1% DMSO. Reactions are terminated by adding 10 μL of 250 mM EDTA and 30 μL of the reaction mixture is transferred onto Immobilon-PVDF membrane (Millipore, Bedford, Mass., USA) previously soaked for 5 min with methanol, rinsed with water, then soaked for 5 min with 0.5% H3PO4 and mounted on vacuum manifold with disconnected vacuum source. After spotting all samples, vacuum is connected and each well rinsed with 200 μL 0.5% H3PO4. […]

[1] = target: c-erbB2 tyrosine kinase (HER-2) (Homo sapiens, UniProt P04626); assay: Inhibition of c-erbB2 tyrosine kinase (HER-2); type: biochemical; set-up: dose or concentration left out as unconfirmed
Text: The inhibition of c-erbB2 tyrosine kinase (HER-2) can be measured, for example, in the same way as the inhibition of EGF-R protein kinase, using known procedures.

T1 sequence (P35968 20-1356): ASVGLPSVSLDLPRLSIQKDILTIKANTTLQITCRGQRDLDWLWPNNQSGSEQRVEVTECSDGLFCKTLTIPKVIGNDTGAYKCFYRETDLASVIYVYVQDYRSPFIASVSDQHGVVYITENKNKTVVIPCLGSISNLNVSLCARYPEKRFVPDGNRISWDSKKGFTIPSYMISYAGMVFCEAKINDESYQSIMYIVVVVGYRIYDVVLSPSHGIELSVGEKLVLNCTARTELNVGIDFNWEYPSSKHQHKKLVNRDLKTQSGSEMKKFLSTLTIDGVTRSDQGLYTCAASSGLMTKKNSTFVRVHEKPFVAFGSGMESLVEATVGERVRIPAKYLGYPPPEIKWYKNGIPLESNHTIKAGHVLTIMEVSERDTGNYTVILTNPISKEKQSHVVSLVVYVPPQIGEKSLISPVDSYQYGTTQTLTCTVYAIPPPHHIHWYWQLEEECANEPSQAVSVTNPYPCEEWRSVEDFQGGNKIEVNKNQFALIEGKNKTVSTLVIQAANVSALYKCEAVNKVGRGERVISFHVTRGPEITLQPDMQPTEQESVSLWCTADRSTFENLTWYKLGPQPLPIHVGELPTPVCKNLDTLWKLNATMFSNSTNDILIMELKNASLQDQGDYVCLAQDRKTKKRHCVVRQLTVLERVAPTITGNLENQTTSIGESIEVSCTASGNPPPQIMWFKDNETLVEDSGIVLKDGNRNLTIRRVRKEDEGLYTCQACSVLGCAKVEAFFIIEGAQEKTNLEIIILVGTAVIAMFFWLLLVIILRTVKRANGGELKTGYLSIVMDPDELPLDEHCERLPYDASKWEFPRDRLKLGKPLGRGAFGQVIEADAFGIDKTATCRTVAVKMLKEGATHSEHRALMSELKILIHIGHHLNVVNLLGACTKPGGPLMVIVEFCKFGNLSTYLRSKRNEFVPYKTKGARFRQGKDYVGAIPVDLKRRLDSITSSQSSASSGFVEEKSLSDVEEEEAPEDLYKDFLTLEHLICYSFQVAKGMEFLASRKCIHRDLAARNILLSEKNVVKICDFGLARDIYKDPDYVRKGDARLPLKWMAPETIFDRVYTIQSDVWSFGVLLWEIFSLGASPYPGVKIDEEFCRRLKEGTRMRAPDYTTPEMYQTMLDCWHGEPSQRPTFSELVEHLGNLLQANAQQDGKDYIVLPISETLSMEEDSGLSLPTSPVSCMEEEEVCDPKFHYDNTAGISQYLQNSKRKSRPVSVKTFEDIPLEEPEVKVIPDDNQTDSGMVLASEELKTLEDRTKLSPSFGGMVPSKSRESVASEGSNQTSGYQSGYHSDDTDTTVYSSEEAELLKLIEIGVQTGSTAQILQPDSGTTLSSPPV

| KDR (% inh) (VEGF receptor (KDR)) [%] | c-Raf-1/ %-inh. [%] (c-Raf-1) | HER-2/%-inh. [%] [1] [%] | Molecule |
| --- | --- | --- | --- |
| 84 | 48 | 88 | CCC(O)(CC)c1ccc(-c2cc3c(NCCCn4cccc4)ncnc3[nH]2)cc1 [Example 33, 3-{4-[4-(3-Pyrrol-1-yl-propylamino)-7H-pyrrolo[2,3-d]pyrimidin-6-yl]-phenyl}-pentan-3-ol] |
| 66 | 50 | 57 | CN(C)c1ncnc2[nH]c(-c3ccc(C(C)(C)O)cc3)cc12 [Example 34, 2-[4-(4-Dimethylamino-7H-pyrrolo[2,3-d]pyrimidin-6-yl)-phenyl]-propan-2-ol] |
| 77 | 56 | 65 | [4-(4-Methylamino-7H-pyrrolo[2,3-d]pyrimidin-6-yl)-phenyl]-morpholin-4-yl-methanone [Example 2] |
